Data reported in patent US20220386606A1, “SPECIFICALLY SUBSTITUTED 3-PHENYL-5-SPIROCYCLOPENTYL-3-PYRROLIN-2-ONES AND THEIR USE AS HERBICIDES” (Bayer Aktiengesellschaft, priority 2019, published 2022).

How the values were obtained:
DIGSA [1] = experiment: Post-emergence herbicidal action against DIGSA; assay type: in vivo, Digitaria sanguinalis; conditions: 80 g/ha, visual assessment about 3 weeks after treatment vs untreated controls
In short: (§1)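 Weeds were grown in sandy loam in a greenhouse and treated at the one-leaf stage, 2 to 3 weeks after sowing. WP or EC formulations were sprayed onto green parts at 600 to 800 l/ha water with 0.2% wetting agent. Visual % action versus untreated controls was scored after about 3 weeks.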

LOLRI [2] = experiment: Post-emergence herbicidal action against LOLRI; assay type: in vivo, Lolium rigidum; conditions: 80 g/ha, visual assessment about 3 weeks after treatment vs untreated controls
In short: as §1

ALOMY [3] = experiment: Post-emergence herbicidal action against ALOMY; assay type: in vivo, Alopecurus myosuroides; conditions: 80 g/ha, visual assessment after about 3 weeks
In short: as §1

AVEFA [4] = experiment: Post-emergence herbicidal action against AVEFA; assay type: in vivo, Avena fatua; conditions: 80 g/ha, visual assessment after about 3 weeks
In short: as §1

HORMU = experiment: Post-emergence herbicidal action against HORMU; assay type: in vivo, Hordeum murinum; conditions: 80 g/ha, visual assessment about 3 weeks after treatment vs untreated controls
Experimental: (§2) Seeds of monocotyledonous and dicotyledonous weed and crop plants are laid out in sandy loam soil in wood-fiber pots, covered with soil and cultivated in a greenhouse under good growth conditions. 2 to 3 weeks after sowing, the test plants are treated at the one-leaf stage. The compounds of the invention, formulated in the form of wettable powders (WP) or as emulsion concentrates (EC), are then sprayed onto the green parts of the plants as aqueous suspension or emulsion at a water application rate equating to 600 to 800 l/ha with addition of 0.2% wetting agent. After the test plants have been left to stand in the greenhouse under optimal growth conditions for about 3 weeks, the action of the preparations is assessed visually in comparison to untreated controls (herbicidal action in percent (%): 100% activity=the plants have died, 0% activity=like control plants).

SETVI [5] = experiment: Post-emergence herbicidal action against SETVI; assay type: in vivo, Setaria viridis; conditions: 80 g/ha, visual assessment about 3 weeks after treatment vs untreated controls
In short: as §1

ECHCG [6] = experiment: Post-emergence herbicidal action against ECHCG; assay type: in vivo, Echinochloa crus-galli; conditions: 80 g/ha, visual assessment about 3 weeks after treatment vs untreated controls
In short: as §1

LOLRI [7] = experiment: Pre-emergence herbicidal action against LOLRI (Table 8, titled post-emergence at 320 g/ha); assay type: in vivo, Lolium rigidum; conditions: table stands in the pre-emergence section
In short: (§3)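 Scoring is visual, 3 weeks post-application, on a 0 to 100% scale relative to untreated controls (100% = plants died). Treatment is pre-emergence: aqueous suspensions or emulsions applied to the covering soil at 600 to 800 L/ha with 0.2% wetting agent.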

AVEFA [8] = experiment: Pre-emergence herbicidal action against AVEFA; assay type: in vivo, Avena fatua; conditions: 320 g/ha, scored visually after 3 weeks vs untreated controls
In short: as §3

MATIN = experiment: Pre-emergence herbicidal action against MATIN; assay type: in vivo; conditions: 320 g/ha
In short: as §3

POLCO = experiment: Pre-emergence herbicidal action against POLCO; assay type: in vivo, Polygonum convolvulus; conditions: 320 g/ha
Excerpt: Seeds of monocotyledonous and dicotyledonous weed plants and crop plants are laid out in sandy loam soil in wood-fiber pots and covered with soil. The compounds of the invention, formulated in the form of wettable powders (WP) or as emulsion concentrates (EC), are then applied to the surface of the covering soil as aqueous suspension or emulsion at a water application rate equating to 600 to 800 L/ha with addition of 0.2% wetting agent.
After the treatment, the pots are placed in a greenhouse and kept under good growth conditions for the trial plants. The damage to the test plants is scored visually after a test period of 3 weeks by comparison with untreated controls (herbicidal activity in percent (%): 100% activity=the plants have died, 0% activity=like control plants).

ALOMY [9] = experiment: Pre-emergence herbicidal action against ALOMY; assay type: in vivo, Alopecurus myosuroides; conditions: 320 g/ha, scored visually after 3 weeks vs untreated controls
In short: as §3

ECHCG [10] = experiment: Pre-emergence herbicidal action against ECHCG; assay type: in vivo, Echinochloa crus-galli; conditions: 320 g/ha, scored visually after 3 weeks vs untreated controls
In short: as §3

VERPE = experiment: Pre-emergence herbicidal action against VERPE; assay type: in vivo, Veronica persica; conditions: 320 g/ha
In short: as §3

AMARE = experiment: Pre-emergence herbicidal action against AMARE; assay type: in vivo, Amaranthus retroflexus; conditions: 320 g/ha
In short: as §3

SETVI [11] = experiment: Pre-emergence herbicidal action against SETVI; assay type: in vivo, Setaria viridis; conditions: 320 g/ha, scored visually after 3 weeks vs untreated controls
In short: as §3

VIOTR = experiment: Pre-emergence herbicidal action against VIOTR; assay type: in vivo, Viola tricolor; conditions: 320 g/ha
In short: as §3

DIGSA [12] = experiment: Pre-emergence herbicidal action against DIGSA; assay type: in vivo, Digitaria sanguinalis; conditions: 320 g/ha, scored visually after 3 weeks vs untreated controls
In short: as §3

ABUTH = experiment: Post-emergence herbicidal action against ABUTH; assay type: in vivo, Abutylon threophrasti; conditions: 80 g/ha, visual assessment about 3 weeks after treatment vs untreated controls
Experimental: as §2

SMILES | Post-emergence action against DIGSA in % (DIGSA [1]) | Post-emergence action against LOLRI in % (LOLRI [2]) | Post-emergence action against ALOMY in % (ALOMY [3]) | Post-emergence action against AVEFA in % (AVEFA [4]) | Post-emergence action against HORMU in % (HORMU) | Post-emergence action against SETVI in % (SETVI [5]) | Post-emergence action against ECHCG in % (ECHCG [6]) | Pre-emergence herbicidal action against LOLRI in % (LOLRI [7]) | Pre-emergence action against AVEFA in % (AVEFA [8]) | Pre-emergence action against MATIN in % (MATIN) | Pre-emergence action against POLCO in % (POLCO) | Pre-emergence action against ALOMY in % (ALOMY [9]) | Pre-emergence action against ECHCG in % (ECHCG [10]) | Pre-emergence action against VERPE in % (VERPE) | Pre-emergence action against AMARE in % (AMARE) | Pre-emergence action against SETVI in % (SETVI [11]) | Pre-emergence action against VIOTR in % (VIOTR) | Pre-emergence action against DIGSA in % (DIGSA [12]) | Post-emergence action against ABUTH in % (ABUTH)
C#Cc1cc(Cl)c(C2=C(O)C3(CCC(COC)C3)NC2=O)c(OC)c1 (stereo not drawn) [Example I-01] | 90% | 100% | 100% | 90% | 100% | 90% | 90% |  |  |  |  |  |  |  |  |  |  |  | 
CC#Cc1cc(Cl)c(C2=C(O)C3(CCC(COCC)C3)NC2=O)c(CC)c1 (stereo not drawn) [Example I-03] | 100% | 100% | 100% | 100% | 100% | 100% | 100% |  |  |  |  |  |  |  |  |  |  |  | 
CC#Cc1cc(Cl)c(C2=C(O)C3(CCC(COC)C3)NC2=O)c(CC)c1 (stereo not drawn) [Example I-04] | 100% | 100% | 100% | 100% | 100% | 100% | 100% |  |  |  |  |  |  |  |  |  |  |  | 
CC#Cc1cc(Cl)c(C2=C(O)C3(CCC(COCC)C3)NC2=O)c(OC)c1 (stereo not drawn) [Example I-07] | 100% | 100% | 100% | 100% | 100% | 100% | 100% |  |  |  |  |  |  |  |  |  |  |  | 
C#Cc1cc(Cl)c(C2=C(O)C3(CCC(COCC)C3)NC2=O)c(OC)c1 (stereo not drawn) [Example I-08] | 80% | 90% | 80% | 90% | 80% | 90% |  |  |  |  |  |  |  |  |  |  |  |  | 
CC#Cc1cc(C)c(C2=C(O)C3(CCC(COCC)C3)NC2=O)c(Cl)c1 (stereo not drawn) [Example I-09] | 100% | 100% | 100% | 100% | 100% | 100% | 100% |  |  |  |  |  |  |  |  |  |  |  | 
C#Cc1cc(Cl)c(C2=C(O)C3(CCC(COC)C3)NC2=O)c(OC)c1 (stereo not drawn) [Example I-13] | 100% | 90% | 100% | 90% | 90% | 100% | 100% |  |  |  |  |  |  |  |  |  |  |  | 
C#Cc1cc(Cl)c(C2=C(O)C3(CCC(COCC)C3)NC2=O)c(OC)c1 (stereo not drawn) [Example I-14] | 90% | 90% | 90% | 90% | 90% | 90% | 90% |  |  |  |  |  |  |  |  |  |  |  | 
CC#Cc1cc(Cl)c(C2=C(O)C3(CCC(COCC)C3)NC2=O)c(CC)c1 (stereo not drawn) [Example I-15] | 100% | 100% | 100% | 100% | 100% | 100% | 100% |  |  |  |  |  |  |  |  |  |  |  | 
C#CCOCC1CCC2(C1)NC(=O)C(c1c(C)cc(C#CC)cc1Cl)=C2O (stereo not drawn) [Example I-79] | 100% | 100% | 90% | 90% |  | 100% | 100% | 100% | 100% | 90% | 90% | 100% | 100% | 80% | 100% | 100% | 100% | 100% | 
CC#Cc1cc(C)c(C2=C(OC(=O)OCC)C3(CCC(COCC)C3)NC2=O)c(Cl)c1 (stereo not drawn) [Example P-11] | 100% | 100% | 80% | 100% | 100% | 100% |  |  |  |  |  |  |  |  |  |  |  |  | 
CC#Cc1cc(C)c(C2=C(OC(=O)C(C)C)C3(CCC(COC)C3)NC2=O)c(Br)c1 (stereo not drawn) [Example P-33] | 100% | 100% | 100% | 90% |  | 100% |  | 100% | 100% |  | 100% | 100% | 100% | 80% | 100% | 100% | 100% | 100% | 80%
CC#Cc1cc(C)c(C2=C(OC(=O)C(C)C)C3(CCC(COCC)C3)NC2=O)c(OC)c1 (stereo not drawn) [Example P-60] | 90% | 100% | 100% | 100% |  | 100% | 100% | 100% | 100% | 90% | 80% | 100% | 100% | 80% | 100% | 100% | 100% | 100% | 
CC#Cc1cc(C)c(C2=C(OC(=O)OCC)C3(CCC(COCCOC)C3)NC2=O)c(OC)c1 (stereo not drawn) [Example P-80] | 90% | 90% | 100% | 90% |  | 100% | 100% | 100% | 100% | 90% | 90% | 100% | 100% | 100% | 90% | 100% | 100% | 100% | 
